According to EP0462621A2, “Use of particular compounds for manufacture of pharmaceutical formulations for treatment against various parasites, mycoplasmas, other indications and other infections” (Prendergast, Patrick Thomas, priority 1990, dated 1991):

Assays:
[1] = test system: HIV-I; experiment: Experiment la(a): macrophage cells, HIV-I, p24 antigen capture radio-immunoassay; type: cell-based; conditions: for TITER: control titer 100000; for wells positive for HIV-I p24, LOG VIRUS DILUTION -1 / wells positive for HIV-I p24, LOG VIRUS DILUTION -2 / wells positive for HIV-I p24, LOG VIRUS DILUTION -3 / wells positive for HIV-I p24, LOG VIRUS DILUTION -4 / wells positive for HIV-I p24, LOG VIRUS DILUTION -5 / wells positive for HIV-I p24, LOG VIRUS DILUTION -6: duplicate runs
Description: Fresh macrophage cultures were obtained by incubation of mononuclear cells obtained from a leukopak directly in the wells of a microtiter plate having 6 wells per row. After removal of non-adherent cells, each row of the adherent macrophages was infected with 10-fold serial dilutions of HIV-I, with the use of polybrene to enhance uptake of the virus. After one to two hours, the virus inoculum was removed and replaced with fresh normal growth medium. The fresh medium for each row contained a particular concentration of AZT, dideoxy cytidine (ddC), or compound la, as indicated by the left-hand column of Table la(a). The first row of wells acted as a control, and to it was added fresh medium containing none of the three drugs. Medium levels were maintained for two to four weeks to allow replication of the virus to take place, with at least one complete fluid change to remove residual virus inoculum. The contents of each well were then tested for the level of HIV p24 antigen present using a commercially available antigen capture kit employing a radio-immunoassay which can detect as little as 10'^9gm of p24 present in a sample. The above procedure was done in duplicate runs.
The results were interpreted as follows: 2/2, for example, means that both the corresponding wells of both runs were positive for HIV-I p24, while 0/2 means that neither well was positive. The titers are given in the next to last column; where 1/2 wells was positive, an intermediate value was given to the titer that is half way between the two dilutions when calculated on a logarithmic scale. 3 µM IPA was positive in both wells at a dilution of 1/10,000 and in neither well at 1/100,000. Thus, one half log interval between 10^4 and 10^5 is 10^4.5, or 30,000.

[2] = test system: B lymphocytes; experiment: Lymphocyte blastogenesis assay, B lymphocytes (PWM); type: cell-based, human
Description: T and B lymphocytes from normal human donors were incubated for 30 minutes at various dose levels of the compounds indicated. The lymphocytes were added in triplicate wells in gentamicin and phytohemagglutinin (PHA) (a T cell mitogen), pokeweed mitogen (PWM) (a B cell mitogen) and allogeneic mononuclear cells (mixed leukocyte cultures; MLC) or media containing the above additives. The lymphocyte blastogenesis assay is described in detail below.
The data are represented as the mean of the three replicates. The results are presented in Charts la(e) (i) and la(e) (ii) (Figs. 1 and 2). […] A reduction of both T lymphocytes' abilities to proliferate was obtained when 100 u.M or greater concentrations of IPA was added to the cell cultures. Proliferative activity of T lymphocytes by 25% at the 30 u.M concentration of IPA in the experiment.
• 1. Mononuclear cells are separated from whole blood by differential centrifugation using a synthetic separation medium, or are thawed from a cryopreserved preparation. The cells are washed and resuspended in media (RPMI - 1640, L-Glutamine 2mM, Herpes Buffer 25mM, Gentamicin 50 ug/ml, Human AB Serum-heat inactivated (56°, 30°) 20%). • 2. A viable cell count is determined. • 3. Cell concentration is adjusted to 2 x 10^6 /ml in media. • 4. The cell suspension is added to wells of a 96-well flat bottom plate in 0.1 ml aliquots (2 x 10^5 cells). • 5. The selected mitogens and/or antigens (in media without serum) are added to the cells in the wells also in 0.1 ml aliquots. • 6. The cultures are incubated for 3-7 days (depending upon the mitogen or antigen) at 37° C in a humidified 5% C02 atmosphere. • 7. Six to eight hours before termination of cultures 0.05 ml (1 µCi) of ^3HTdR sp. act 6.7 Ci/mM (20 µCi/ml stock) is added to each well. • 8. At termination of cultures the cells are harvested onto strips of scintillation-grade fibreglass paper using a multiple sample harvester. • 9. Perforated disks from the fibreglass paper of the harvested cultures are placed each into scintillation vials to which is then added 5 ml of toluene based scintillation cocktail. • 10. The vials are counted in a liquid scintillation counter for one minute where the amount of incorporated ^3HTdR is determined.
net CPM = xCPM of mitogen/antigen cultures - xCPM of media cultures.

[3] = test system: L major/L mexicana; experiment: Amastigote-promastigote (AM-PRO) transformation, in-vitro; type: cell-based; conditions: Lm.
[4] = test system: RH strain T. gondii; experiment: Growth of Toxoplasma gondii in human foreskin fibroblasts, tritiated uracil incorporation; type: cell-based; conditions: various concentrations; Figure 24
Description: An experiment was conducted to evaluate the in-vitro effects of IPA on Toxoplasma Gondii by infecting human foreskin fibroblast monolayers (four replicates per condition) with RH strain T. gondii in the presence of various concentrations of IPA dissolved in Eagle's minimum essential medium without fetal bovine serum. After an initial four hour period of infection, the media and any T. gondii which had not entered the host cells were removed and replaced by media containing 1 u.M tritiated uracil per milliter, and incubated overnight. The mono-layers were lysed, nucleic acids precipitated by trichloroacetic acid, and the precipitates recovered on glass fiber filters. Radioactivity on the filters was measured in a Beckman scintillation spectrometer. Controls included fibroblast monolayers without T. gondii (cell control) and fibroblast monolayers infected by the same inoculum of T. gondii as the IPA treated monolayers (Tg control). The units of uracil incorporation are somewhat lower here because of the lower inoculum of T. gondii.

CC(C)=CCNc1ncnc2c1ncn2[C@@H]1O[C@H](CO)[C@@H](O)[C@H]1O [IPA, N^6-(Δ^2-isopentenyl) adenosine]
activity at 3 µM ([1]; Human immunodeficiency virus 1, Macrophage, drug 3 μM, titer relative to control, read-out: PERCENT OF CONTROL): 30% | activity at 10 µM ([1]; Human immunodeficiency virus 1, Macrophage, drug 10 μM, titer relative to control, read-out: PERCENT OF CONTROL): 10% | activity at 30 µM ([1]; Human immunodeficiency virus 1, Macrophage, drug 30 μM, titer relative to control, read-out: PERCENT OF CONTROL): 1% | activity at 100 µM ([1]; Human immunodeficiency virus 1, Macrophage, drug 100 μM, titer relative to control, read-out: PERCENT OF CONTROL): 0.3% | activity at 300 µM ([1]; Human immunodeficiency virus 1, Macrophage, drug 300 μM, titer relative to control, read-out: PERCENT OF CONTROL): 0% | activity at 1000 µM ([1]; Human immunodeficiency virus 1, Macrophage, drug 1000 μM, titer relative to control, read-out: PERCENT OF CONTROL): 0% | TITER ([1]; drug 3 μM): 30000 | wells positive for HIV-I p24, LOG VIRUS DILUTION -1 ([1]; drug 3 μM): 2/2 | wells positive for HIV-I p24, LOG VIRUS DILUTION -2 ([1]; drug 3 μM): 2/2 | wells positive for HIV-I p24, LOG VIRUS DILUTION -3 ([1]; drug 3 μM): 2/2 | wells positive for HIV-I p24, LOG VIRUS DILUTION -4 ([1]; drug 3 μM): 2/2 | wells positive for HIV-I p24, LOG VIRUS DILUTION -5 ([1]; drug 3 μM): 0/2 | wells positive for HIV-I p24, LOG VIRUS DILUTION -6 ([1]; drug 3 μM): 0/2 | TITER ([1]; drug 10 μM): 10000 | wells positive for HIV-I p24, LOG VIRUS DILUTION -1 ([1]; drug 10 μM): 2/2 | wells positive for HIV-I p24, LOG VIRUS DILUTION -2 ([1]; drug 10 μM): 2/2 | wells positive for HIV-I p24, LOG VIRUS DILUTION -3 ([1]; drug 10 μM): 2/2 | wells positive for HIV-I p24, LOG VIRUS DILUTION -4 ([1]; drug 10 μM): 1/2 | wells positive for HIV-I p24, LOG VIRUS DILUTION -5 ([1]; drug 10 μM): 0/2 | wells positive for HIV-I p24, LOG VIRUS DILUTION -6 ([1]; drug 10 μM): 0/2 | TITER ([1]; drug 30 μM): 1000 | wells positive for HIV-I p24, LOG VIRUS DILUTION -1 ([1]; drug 30 μM): 2/2 | wells positive for HIV-I p24, LOG VIRUS DILUTION -2 ([1]; drug 30 μM): 2/2 | wells positive for HIV-I p24, LOG VIRUS DILUTION -3 ([1]; drug 30 μM): 1/2 | wells positive for HIV-I p24, LOG VIRUS DILUTION -4 ([1]; drug 30 μM): 0/2 | wells positive for HIV-I p24, LOG VIRUS DILUTION -5 ([1]; drug 30 μM): 0/2 | wells positive for HIV-I p24, LOG VIRUS DILUTION -6 ([1]; drug 30 μM): 0/2 | TITER ([1]; drug 100 μM): 300 | wells positive for HIV-I p24, LOG VIRUS DILUTION -1 ([1]; drug 100 μM): 2/2 | wells positive for HIV-I p24, LOG VIRUS DILUTION -2 ([1]; drug 100 μM): 2/2 | wells positive for HIV-I p24, LOG VIRUS DILUTION -3 ([1]; drug 100 μM): 0/2 | wells positive for HIV-I p24, LOG VIRUS DILUTION -4 ([1]; drug 100 μM): 0/2 | wells positive for HIV-I p24, LOG VIRUS DILUTION -5 ([1]; drug 100 μM): 0/2 | wells positive for HIV-I p24, LOG VIRUS DILUTION -6 ([1]; drug 100 μM): 0/2 | TITER ([1]; drug 300 μM): 10 | wells positive for HIV-I p24, LOG VIRUS DILUTION -1 ([1]; drug 300 μM): 0/2 | wells positive for HIV-I p24, LOG VIRUS DILUTION -2 ([1]; drug 300 μM): 0/2 | wells positive for HIV-I p24, LOG VIRUS DILUTION -3 ([1]; drug 300 μM): 0/2 | wells positive for HIV-I p24, LOG VIRUS DILUTION -4 ([1]; drug 300 μM): 0/2 | wells positive for HIV-I p24, LOG VIRUS DILUTION -5 ([1]; drug 300 μM): 0/2 | wells positive for HIV-I p24, LOG VIRUS DILUTION -6 ([1]; drug 300 μM): 0/2 | TITER ([1]; drug 1000 μM): 10 | wells positive for HIV-I p24, LOG VIRUS DILUTION -1 ([1]; drug 1000 μM): 0/2 | wells positive for HIV-I p24, LOG VIRUS DILUTION -2 ([1]; drug 1000 μM): 0/2 | wells positive for HIV-I p24, LOG VIRUS DILUTION -3 ([1]; drug 1000 μM): 0/2 | wells positive for HIV-I p24, LOG VIRUS DILUTION -4 ([1]; drug 1000 μM): 0/2 | wells positive for HIV-I p24, LOG VIRUS DILUTION -5 ([1]; drug 1000 μM): 0/2 | wells positive for HIV-I p24, LOG VIRUS DILUTION -6 ([1]; drug 1000 μM): 0/2 | B lymphocyte responsiveness ([2]; 10 µM, third experiment): Increased | B lymphocyte function ([2]; 1000 µM down to 10 µM, third experiment (Figs. 7 and 8)): reductions | B lymphocyte proliferation ([2]; 0.1 - 10 µM, first experiment): No effect or an increase | reduction in B lymphocyte function ([2]; 30 -35 u.M, third experiment): ~25% | reduction of B lymphocyte proliferation ([2]; between the 30 -10 u.M concentration levels, second experiment, approximate): 30 -50% | Activity, AM-PRO transform-ation [3]: + + | effect on the growth of T. gondii [4]: inhibitory effect
